Results on 69 compounds are retold here after article PMC8041284, “Tunable Methacrylamides for Covalent Ligand Directed Release Chemistry” (Journal of the American Chemical Society, 2021).

In assay [1] the target is T1, BTK (Homo sapiens, UniProt Q06187). The conditions noted are these: 10 µM, inhibitor.
In assay [2] the target is T1, BTK. Briefly: biochemical.
[3] abbreviates: 0.75 uM BTK, […] probe 3l, 15 min preincubation, BTK inhibition (%).
The mark [4] stands for this setting: 0.75 uM BTK, […] probe 3l, 15 min preincubation.
[5] abbreviates: read-out: BTK inhibition (%), 0.75 uM BTK, […] probe 3l, 15 min preincubation.

Read-outs that look alike come from different tables or passages of the source. Where no end group is shown, it is not given here.

T1 sequence (Q06187 402-655 limits assumed): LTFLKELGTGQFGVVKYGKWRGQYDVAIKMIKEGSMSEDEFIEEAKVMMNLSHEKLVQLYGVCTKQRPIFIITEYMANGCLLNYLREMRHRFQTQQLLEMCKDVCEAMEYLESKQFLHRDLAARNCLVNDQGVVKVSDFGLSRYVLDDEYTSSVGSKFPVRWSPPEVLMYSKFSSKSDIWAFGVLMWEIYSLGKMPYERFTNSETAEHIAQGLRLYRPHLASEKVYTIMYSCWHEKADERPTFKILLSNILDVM

Turning to `COC(=O)C1=CCCN(C)C1` [PCM-0003961], the “BTK inhibition (%)” value at BTK [1] is on record as -10.1%.
`CC(=O)Oc1ccccc1C(=O)O` [PCM-0064532]: on BTK [1] (setting [3]), the “BTK inhibition (%)” value turned out to be 7.6%.
On to `CN1CCC(c2c[nH]c3ccc(O)cc23)CC1` [PCM-0064588], for which the “BTK inhibition (%)” value on BTK [1] is recorded as 16.3%.
For `O=P1(N(CCCl)CCCl)NCCCO1` (stereo not drawn) [PCM-0064707], the “BTK inhibition (%)” value on BTK [1] (setting [4]) is on record as -19.3%.
Consider `CN(C)C(=O)Oc1cccc([N+](C)(C)C)c1` [PCM-0064762], for which, on BTK [1] (setting [4]), the “BTK inhibition (%)” value is -7.7%.
Turning to `Cc1cc2c(C(C)C)c(O)c(O)c(C=O)c2c(O)c1-c1c(C)cc2c(C(C)C)c(O)c(O)c(C=O)c2c1O` [PCM-0064881], on BTK [1] (setting [4]), the “BTK inhibition (%)” value was 75.5%.
With `COc1ccc(C(CN(C)C)C2(O)CCCCC2)cc1` (stereo not drawn) [PCM-0065195], the “BTK inhibition (%)” value at BTK [1] (setting [4]) is 6.2%.
As for `C[N+](C)(C)CCCCCCCCCC[N+](C)(C)C` [PCM-0065265], at BTK [1] (setting [4]), the “BTK inhibition (%)” value was found to be 11.7%.
In the case of `Cn1c(CCCC(=O)O)nc2cc(N(CCCl)CCCl)ccc21` [PCM-0065281], the “BTK inhibition (%)” value on BTK [1] (setting [4]) is on record as -3.9%.
`NC(=O)c1ncn([C@@H]2O[C@H](CO)[C@@H](O)[C@H]2O)n1` [PCM-0065438]: the “BTK inhibition (%)” value at BTK [1] (setting [4]) is -11.7%.
As to `COc1ccc2c(c1)c(CC(=O)O)c(C)n2C(=O)c1ccc(Cl)cc1` [PCM-0065532], the “BTK inhibition (%)” value on BTK [1] (setting [3]) came to 5.5%.
Turning to `CN(C)C(=O)Oc1ccc[n+](C)c1` [PCM-0065636], the “BTK inhibition (%)” value on BTK [1] (setting [4]) was -25.7%.
For the compound `Cc1cc(NS(=O)(=O)c2ccc(N)cc2)no1` [PCM-0085795], the “BTK inhibition (%)” value at BTK [1] (setting [3]) is listed as -3.1%.
For `Nc1ccc(S(=O)(=O)Nc2ncccn2)cc1` [PCM-0085802], the “BTK inhibition (%)” value on BTK [1] (setting [3]) is listed as -14%.
`O=C1O[C@H]([C@@H](O)CO)C(O)=C1O` [PCM-0085940]: at BTK [1] (setting [3]), the “BTK inhibition (%)” value came to 5.4%.
Same read-out and setting: for `Cc1c(O)c(=O)ccn1C` [PCM-0085974] the value was -30.4%.
Take `CO[C@H]1/C=C/O[C@@]2(C)Oc3c(C)c(O)c4c(O)c(c(/C=N/N5CCN(C)CC5)c(O)c4c3C2=O)NC(=O)/C(C)=C\C=C\[C@H](C)[C@H](O)[C@@H](C)[C@@H](O)[C@@H](C)[C@H](OC(C)=O)[C@@H]1C` [PCM-0086069]: the “BTK inhibition (%)” value at BTK [1] (setting [4]) amounted to 32.7%.
Regarding `CN1[C@@H]2CC[C@H]1CC(OC(=O)c1c[nH]c3ccccc13)C2` (stereo partly drawn) [PCM-0086109], the “BTK inhibition (%)” value at BTK [1] (setting [3]) is listed as -11.7%.
With `Cc1cc(C(C#N)c2ccc(Cl)cc2)c(Cl)cc1NC(=O)c1cc(I)cc(I)c1O` (stereo not drawn) [PCM-0086145], the “BTK inhibition (%)” value at BTK [1] (setting [4]) is 20.2%.
Consider `CCN(C)C(=O)Oc1cccc([C@H](C)N(C)C)c1` [PCM-0086345], for which the “BTK inhibition (%)” value on BTK [1] (setting [4]) is given as 1.6%.
Regarding `COc1cc(NS(=O)(=O)c2ccc(N)cc2)nc(OC)n1` [PCM-0086362], the “BTK inhibition (%)” value at BTK [1] (setting [3]) is given as -7.8%.
Same read-out and setting: for `CC(C(=O)O)c1cccc(Oc2ccccc2)c1` (stereo not drawn) [PCM-0086452] the value was -45.1%; for `Cc1cc(C)nc(NS(=O)(=O)c2ccc(N)cc2)n1` [PCM-0086513], -23.3%.
For `C=C(C)[C@@H]1CC[C@]2(C(=O)O)CC[C@]3(C)[C@H](CC[C@@H]4[C@@]5(C)CC[C@H](O)[C@@](C)(CO)[C@@H]5CC[C@]43C)[C@@H]12` [PCM-0216604], the inhibition at 10 µM on BTK [2] (setting [5]) was found to be 26.3%.
On to `C=C(C)[C@@H]1CC[C@]2(C(=O)O)CC[C@]3(C)[C@H](CC[C@@H]4[C@@]5(C)CC[C@H](OC(=O)CC(C)(C)C(=O)O)C(C)(C)[C@@H]5CC[C@]43C)[C@@H]12` [PCM-0216605], for which the inhibition at 10 µM at BTK [2] (setting [5]) was found to be 17.8%.
As to `C[C@@H]1CC[C@@]2(NC1)O[C@H]1C[C@H]3[C@@H]4CC=C5C[C@@H](O[C@@H]6O[C@H](CO)[C@@H](O[C@@H]7O[C@@H](C)[C@H](O)[C@@H](O)[C@H]7O)[C@H](O)[C@H]6O)CC[C@]5(C)[C@H]4CC[C@]3(C)[C@H]1[C@@H]2C` [PCM-0216606], the inhibition at 10 µM at BTK [2] (read-out: BTK inhibition (%)) is -6.9%.
On to `C/C=C(/C)C(=O)OC(C)(C)[C@@H]1Cc2c(ccc3ccc(=O)oc23)O1` [PCM-0216607], for which the inhibition at 10 µM on BTK [2] (setting [5]) was -23.9%.
Turning to `CC1(C)CC[C@]2(C(=O)O)[C@H](O)C[C@]3(C)C(=CC[C@@H]4[C@@]5(C)CC[C@H](O)[C@@](C)(C=O)[C@@H]5CC[C@]43C)[C@@H]2C1` [PCM-0216608], at BTK [2] (setting [5]), the inhibition at 10 µM was -8.5%.
The same measure, in the same setting: for `CC(C)=CCC[C@@](C)(O)[C@H]1CC[C@]2(C)[C@@H]1[C@H](O)C[C@@H]1[C@@]3(C)CC[C@H](O[C@@H]4O[C@H](CO)[C@@H](O)[C@H](O)[C@H]4O[C@@H]4O[C@H](CO)[C@@H](O)[C@H](O)[C@H]4O)C(C)(C)[C@@H]3CC[C@]12C` [PCM-0216609] the value was 21.6%; for `CC(C)=CCC[C@](C)(O)[C@H]1CC[C@]2(C)[C@@H]1[C@H](O)C[C@@H]1[C@@]3(C)CC[C@H](O[C@@H]4O[C@H](CO)[C@@H](O)[C@H](O)[C@H]4O[C@@H]4O[C@H](CO)[C@@H](O)[C@H](O)[C@H]4O)C(C)(C)[C@@H]3CC[C@]12C` [PCM-0216610], 16.2%; for `CC1(C)CC[C@]2(C(=O)O)CC[C@]3(C)C(=CC[C@@H]4[C@@]5(C)C[C@@H](O)[C@H](O)C(C)(C)[C@@H]5CC[C@]43C)[C@@H]2C1` [PCM-0216611], 20.1%.
Same read-out and setting: the result for `CC1=CC(=O)[C@H]2C[C@@H]1C2(C)C` [PCM-0216612] reads 7.7%; that for `O=CCc1ccccc1` [PCM-0216613], 6.9%; that for `CCCCCCCCCC(=O)OCC(COC(=O)CCCCCCCCC)OC(=O)CCCCCCCCC` [PCM-0216614], 11.6%.
As to `COc1cc2oc(-c3ccccc3)cc(=O)c2c(OC)c1OC` [PCM-0216616], the inhibition at 10 µM at BTK [2] (setting [5]) is -34%.
On the same count and under the same terms, the result for `CSCCC(N)C(=O)O` (stereo not drawn) [PCM-0216617] reads 17.9%; that for `N[C@@H](CO)C(=O)O` [PCM-0216618], 4.3%.
Still for that read-out and setting: the result for `O=C(O)c1ccc2c(c1)C(=O)c1ccccc1C2=O` [PCM-0216619] reads 9.3%; that for `CC(=O)OC/C=C(/C)CCC=C(C)C` [PCM-0216620], 1.5%; that for `CC(=O)c1ccccc1O` [PCM-0216621], 0.8%.
`CC(=O)CCc1ccccc1` [PCM-0216622]: at BTK [2] (setting [5]), the inhibition at 10 µM is -6.9%.
Still for that read-out and setting: for `C=CCc1ccc(OC(C)=O)c(OC)c1` [PCM-0216623] the value was 8.5%; for `O=C1CCc2ccccc2O1` [PCM-0216624], -9.3%; for `Cc1ccc(C=O)o1` [PCM-0216625], -5.4%.
With `COc1ccccc1OCCN` [PCM-0216626], on BTK [2] (setting [5]), the inhibition at 10 µM is -11.6%.
Still for that read-out and setting: the result for `Cc1cc(=O)oc2c([N+](=O)[O-])c(O)ccc12` [PCM-0216627] reads 13.1%; that for `C=C(C)[C@H]1CC=C(C)CC1` [PCM-0216628], 5.4%.
Same read-out and setting: for `CCCCCCCCOC(=O)c1cc(O)c(O)c(O)c1` [PCM-0216629] the value was 3.9%; for `CCCCCCCCCCCCCCCC(=O)OCC` [PCM-0216630], -12.4%; for `Cc1c[nH]c(=O)[nH]c1=O` [PCM-0216631], 14.7%.
The same measure, in the same setting: the result for `CCCCCCCCCCCCCCCC(=O)OC` [PCM-0216632] reads 25.5%; that for `CCCCCCCCCC(C)O` (stereo not drawn) [PCM-0216633], -30.1%.
Consider `CCC(=O)NC[C@@H]1C[C@H]1c1cccc2c1CCO2` [PCM-0216634], for which, at BTK [2] (setting [5]), the inhibition at 10 µM is 3.9%.
On the same count and under the same terms, for `COc1ccc2c(c1)c(CC(=O)O)c(C)n2C(=O)c1ccc(Cl)cc1` [PCM-0216635] the value was 10.8%.
On the same count and under the same terms, for `C/C(=C(/CCOC(=O)C(C)C)SS/C(CCOC(=O)C(C)C)=C(\C)N(C=O)Cc1cnc(C)nc1N)N(C=O)Cc1cnc(C)nc1N` [PCM-0216636] the value was -16.2%; for `O=C(O)c1cc(C(=O)O)c2c(n1)C(=O)C(=O)c1cc(C(=O)O)[nH]c1-2` [PCM-0216638], -0.8%; for `CCOC(=O)[C@H](CCc1ccccc1)N[C@@H](C)C(=O)N(CC(=O)O)C1Cc2ccccc2C1` [PCM-0216640], -10%.
The same measure, in the same setting: for `COC(=O)N[C@H](C(=O)N1CCC[C@H]1c1ncc(-c2ccc3c(c2)O[C@@H](c2ccccc2)n2c-3cc3cc(-c4cnc([C@@H]5CCCN5C(=O)[C@@H](NC(=O)OC)C(C)C)[nH]4)ccc32)[nH]1)C(C)C` [PCM-0216642] the value was 52.5%; for `C[C@@H](O)[C@H]1C(=O)N2C(C(=O)O)=C(S[C@@H]3CN[C@H](C(=O)Nc4cccc(C(=O)O)c4)C3)[C@H](C)[C@H]12` [PCM-0216643], 0.8%.
On to `C/C(=C\CNc1ncnc2c1ncn2[C@@H]1O[C@H](CO)[C@@H](O)[C@H]1O)CO` [PCM-0216644], for which, at BTK [2] (setting [5]), the inhibition at 10 µM turned out to be 0.8%.
Turning to `CC(C)(Sc1ccncc1-c1ccc(C#N)c2ccccc12)C(=O)O` [PCM-0216646], on BTK [2] (setting [5]), the inhibition at 10 µM is -27.8%.
Regarding `C[C@@H](OC[C@@]1(c2ccccc2)CC[C@]2(CCC(=O)N2)CN1)c1cc(C(F)(F)F)cc(C(F)(F)F)c1` [PCM-0216647], at BTK [2] (setting [5]), the inhibition at 10 µM is -48.6%.
On to `CNC(=O)c1c(C)oc2cc(Oc3ncnc4cc(OC)c(OC)cc34)ccc12` [PCM-0216648], for which, at BTK [2] (setting [5]), the inhibition at 10 µM stood at 1.4%.
With `C=C1CC[C@H]2[C@@H](/C=C(/C)C(=O)[C@@]3(O)C[C@H](C)[C@H](O)[C@@H]3[C@H]1O)C2(C)C` [PCM-0216650], the inhibition at 10 µM on BTK [2] (read-out: BTK inhibition (%)) is -9.3%.
As to `Cc1c[nH]c(/C=C2\C(=O)Nc3ccccc32)c1CCC(=O)O` [PCM-0216652], on BTK [2] (setting [5]), the inhibition at 10 µM was found to be 83.4%.
The same measure, in the same setting: the result for `COc1ccc2[nH]cc(/C=C3\C(=O)Nc4ccc(NC(=O)CCN5CCCCC5)cc43)c2c1` [PCM-0216653] reads 51.7%; that for `C=C1[C@H](O)C[C@H]2[C@@H](/C=C(\C)C(=O)[C@@]3(O)C[C@H](C)[C@H](O)[C@@H]3[C@H]1O)C2(C)C` [PCM-0216654], -8.6%; that for Ac-PHSCN-NH2 [PCM-0215851], -5.1%.
As to RKDVY [PCM-0214887], the inhibition at 10 µM on BTK [2] (setting [5]) stood at 4.8%.

In general, inhibition refers to the relative decrease from the control value, in per cent.
